Where two headings read alike, the source gives them in different places.
Legend:
NEK9 = NEK9 (Homo sapiens, UniProt Q8TD19); settings: 1 µM; binder
CDKL3 = CDKL3 (Homo sapiens, UniProt Q8IVW4); settings: 1 µM; binder
MAPKAPK5 = MAPKAPK5 (Homo sapiens, UniProt Q8IW41); settings: 1 µM; binder
CSK = CSK (Homo sapiens, UniProt P41240); settings: 1 µM; binder
HASPIN = HASPIN (Homo sapiens, UniProt Q8TF76); settings: 1 µM; binder
PDGFRA = PDGFRA (Homo sapiens, UniProt P16234); settings: 1 µM; binder
TLK1 = TLK1 (Homo sapiens, UniProt Q9UKI8); settings: 1 µM; binder
ASK2 = ASK2 (Homo sapiens, UniProt O95382); settings: 1 µM; binder
MET = MET (Homo sapiens, UniProt P08581); settings: 1 µM; binder
LOK = LOK (Homo sapiens, UniProt O94804); settings: 1 µM; binder
RET(V804L) = RET(V804L) (Homo sapiens, UniProt P07949, V804L); settings: 1 µM; binder
PIK3CA(C420R) = PIK3CA(C420R) (Homo sapiens, UniProt P42336, C420R); settings: 1 µM; binder
NEK11 = NEK11 (Homo sapiens, UniProt Q8NG66); settings: 1 µM; binder
TRPM6 = TRPM6 (Homo sapiens, UniProt Q9BX84); settings: 1 µM; binder
KIT(D816V) = KIT(D816V) (Homo sapiens, UniProt P10721, D816V); settings: 1 µM; binder
WEE1 = WEE1 (Homo sapiens, UniProt P30291); settings: 1 µM; binder
IRAK1 = IRAK1 (Homo sapiens, UniProt P51617); settings: 1 µM; binder
CDK4 = CDK4 (Homo sapiens, UniProt P11802); settings: 1 µM; binder
ACVR2A = ACVR2A (Homo sapiens, UniProt P27037); settings: 1 µM; binder
ERN1 = ERN1 (Homo sapiens, UniProt O75460); settings: 1 µM; binder
GSK3B = GSK3B (Homo sapiens, UniProt P49841); settings: 1 µM; binder
BRAF(V600E) = BRAF(V600E) (Homo sapiens, UniProt P15056, V600E); settings: 1 µM; binder
MLK1 = MLK1 (Homo sapiens, UniProt P80192); settings: 1 µM; binder
ABL1(Q252H) = ABL1(Q252H) (Homo sapiens, UniProt P00519, Q252H); settings: 1 µM, binder
ABL1(H396P) = ABL1(H396P) (Homo sapiens, UniProt P00519, H396P); settings: 1 µM, binder
EGFR(S752-I759del) = EGFR(S752-I759del) (Homo sapiens, UniProt P00533, DEL752-759); settings: 1 µM; binder
CSNK1G3 = CSNK1G3 (Homo sapiens, UniProt Q9Y6M4); settings: 1 µM; binder
MYO3B = MYO3B (Homo sapiens, UniProt Q8WXR4); settings: 1 µM; binder
LZK = LZK (Homo sapiens, UniProt O43283); settings: 1 µM; binder

PIK3CA(C420R), sequence (P42336 whole entry C420R): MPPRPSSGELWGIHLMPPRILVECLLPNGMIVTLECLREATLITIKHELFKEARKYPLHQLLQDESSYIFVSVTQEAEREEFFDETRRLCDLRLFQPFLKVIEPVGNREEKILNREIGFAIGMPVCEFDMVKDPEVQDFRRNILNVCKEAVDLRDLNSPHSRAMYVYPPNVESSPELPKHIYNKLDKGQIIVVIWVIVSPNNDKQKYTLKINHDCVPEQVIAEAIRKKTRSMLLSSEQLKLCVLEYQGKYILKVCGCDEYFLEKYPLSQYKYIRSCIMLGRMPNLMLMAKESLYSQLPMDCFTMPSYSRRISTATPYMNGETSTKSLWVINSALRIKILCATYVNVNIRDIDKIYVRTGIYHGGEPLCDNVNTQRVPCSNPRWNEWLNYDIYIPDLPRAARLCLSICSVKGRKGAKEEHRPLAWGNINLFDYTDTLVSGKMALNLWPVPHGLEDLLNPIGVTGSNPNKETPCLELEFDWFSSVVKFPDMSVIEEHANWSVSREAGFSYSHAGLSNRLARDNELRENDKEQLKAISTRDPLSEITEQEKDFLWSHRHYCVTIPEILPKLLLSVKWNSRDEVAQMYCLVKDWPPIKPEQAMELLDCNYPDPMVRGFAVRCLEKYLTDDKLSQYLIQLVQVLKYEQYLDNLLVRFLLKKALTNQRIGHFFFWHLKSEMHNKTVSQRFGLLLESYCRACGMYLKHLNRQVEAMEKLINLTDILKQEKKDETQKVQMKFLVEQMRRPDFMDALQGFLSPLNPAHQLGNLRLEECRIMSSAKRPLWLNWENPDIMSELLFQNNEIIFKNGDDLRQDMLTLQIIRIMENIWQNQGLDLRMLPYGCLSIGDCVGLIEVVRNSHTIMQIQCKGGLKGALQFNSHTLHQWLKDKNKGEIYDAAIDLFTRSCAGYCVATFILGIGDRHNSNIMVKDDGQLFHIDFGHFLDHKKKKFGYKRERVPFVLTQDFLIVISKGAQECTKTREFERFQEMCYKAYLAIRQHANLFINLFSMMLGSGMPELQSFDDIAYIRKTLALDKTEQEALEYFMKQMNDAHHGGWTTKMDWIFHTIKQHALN
MET, sequence (P08581 whole entry): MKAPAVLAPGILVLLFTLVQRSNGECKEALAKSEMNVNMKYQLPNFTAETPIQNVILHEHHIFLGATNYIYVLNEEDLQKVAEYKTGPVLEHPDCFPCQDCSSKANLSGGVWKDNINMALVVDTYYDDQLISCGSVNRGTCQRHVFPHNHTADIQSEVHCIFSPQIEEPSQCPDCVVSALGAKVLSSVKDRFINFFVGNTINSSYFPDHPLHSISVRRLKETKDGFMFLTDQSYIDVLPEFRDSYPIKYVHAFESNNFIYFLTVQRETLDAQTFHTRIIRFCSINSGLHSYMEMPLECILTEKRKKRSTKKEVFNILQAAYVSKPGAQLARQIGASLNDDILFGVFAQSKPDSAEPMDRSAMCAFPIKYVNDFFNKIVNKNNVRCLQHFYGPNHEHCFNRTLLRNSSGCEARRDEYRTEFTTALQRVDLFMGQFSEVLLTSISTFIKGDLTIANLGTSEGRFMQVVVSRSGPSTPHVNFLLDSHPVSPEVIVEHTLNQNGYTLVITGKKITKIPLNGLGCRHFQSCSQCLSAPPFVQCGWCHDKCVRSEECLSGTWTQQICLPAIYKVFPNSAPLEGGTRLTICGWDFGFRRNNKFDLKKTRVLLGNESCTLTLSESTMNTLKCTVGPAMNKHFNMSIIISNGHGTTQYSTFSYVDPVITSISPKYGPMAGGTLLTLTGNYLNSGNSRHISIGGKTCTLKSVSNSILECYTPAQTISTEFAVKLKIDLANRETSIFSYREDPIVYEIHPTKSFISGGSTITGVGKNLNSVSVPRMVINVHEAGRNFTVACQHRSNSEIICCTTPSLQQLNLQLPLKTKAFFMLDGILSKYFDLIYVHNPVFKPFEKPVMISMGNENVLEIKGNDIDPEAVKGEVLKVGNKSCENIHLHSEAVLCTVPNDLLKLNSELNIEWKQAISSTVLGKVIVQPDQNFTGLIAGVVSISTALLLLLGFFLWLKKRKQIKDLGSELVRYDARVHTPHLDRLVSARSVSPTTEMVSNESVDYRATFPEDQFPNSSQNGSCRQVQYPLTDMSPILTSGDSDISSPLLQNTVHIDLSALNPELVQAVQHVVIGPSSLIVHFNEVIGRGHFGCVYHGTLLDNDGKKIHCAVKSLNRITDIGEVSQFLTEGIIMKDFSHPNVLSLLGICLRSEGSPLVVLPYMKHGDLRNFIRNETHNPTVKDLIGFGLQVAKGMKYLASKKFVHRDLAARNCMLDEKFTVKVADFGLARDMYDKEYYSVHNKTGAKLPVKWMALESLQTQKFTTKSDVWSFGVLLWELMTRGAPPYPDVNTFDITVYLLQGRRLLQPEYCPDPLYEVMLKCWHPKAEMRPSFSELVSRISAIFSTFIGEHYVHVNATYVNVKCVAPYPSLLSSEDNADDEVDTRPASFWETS
LOK, sequence (O94804 whole entry): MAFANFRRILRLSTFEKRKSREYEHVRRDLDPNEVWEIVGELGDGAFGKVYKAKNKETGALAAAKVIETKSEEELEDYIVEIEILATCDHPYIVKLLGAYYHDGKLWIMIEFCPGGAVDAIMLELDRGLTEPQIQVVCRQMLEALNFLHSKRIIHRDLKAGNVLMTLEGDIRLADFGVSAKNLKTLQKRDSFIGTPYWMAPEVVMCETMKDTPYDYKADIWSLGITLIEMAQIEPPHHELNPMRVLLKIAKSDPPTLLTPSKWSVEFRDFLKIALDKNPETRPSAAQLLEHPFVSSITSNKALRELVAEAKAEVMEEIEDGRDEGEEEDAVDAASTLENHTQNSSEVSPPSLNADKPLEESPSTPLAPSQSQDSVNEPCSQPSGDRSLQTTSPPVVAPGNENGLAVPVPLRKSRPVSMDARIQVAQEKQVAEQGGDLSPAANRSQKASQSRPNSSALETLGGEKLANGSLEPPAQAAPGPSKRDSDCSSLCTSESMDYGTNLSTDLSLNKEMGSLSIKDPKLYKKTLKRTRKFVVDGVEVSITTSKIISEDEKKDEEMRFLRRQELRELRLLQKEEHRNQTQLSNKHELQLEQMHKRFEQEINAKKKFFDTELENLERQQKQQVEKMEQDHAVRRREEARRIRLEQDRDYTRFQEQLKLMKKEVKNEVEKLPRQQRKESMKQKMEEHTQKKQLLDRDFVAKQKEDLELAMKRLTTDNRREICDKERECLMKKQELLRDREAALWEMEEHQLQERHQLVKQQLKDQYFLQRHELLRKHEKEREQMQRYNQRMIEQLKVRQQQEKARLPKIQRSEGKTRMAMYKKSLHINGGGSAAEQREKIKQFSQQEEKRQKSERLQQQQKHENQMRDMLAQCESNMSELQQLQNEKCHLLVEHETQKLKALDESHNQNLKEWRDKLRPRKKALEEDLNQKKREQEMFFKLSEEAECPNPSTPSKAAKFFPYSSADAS
KIT(D816V), sequence (P10721 whole entry D816V): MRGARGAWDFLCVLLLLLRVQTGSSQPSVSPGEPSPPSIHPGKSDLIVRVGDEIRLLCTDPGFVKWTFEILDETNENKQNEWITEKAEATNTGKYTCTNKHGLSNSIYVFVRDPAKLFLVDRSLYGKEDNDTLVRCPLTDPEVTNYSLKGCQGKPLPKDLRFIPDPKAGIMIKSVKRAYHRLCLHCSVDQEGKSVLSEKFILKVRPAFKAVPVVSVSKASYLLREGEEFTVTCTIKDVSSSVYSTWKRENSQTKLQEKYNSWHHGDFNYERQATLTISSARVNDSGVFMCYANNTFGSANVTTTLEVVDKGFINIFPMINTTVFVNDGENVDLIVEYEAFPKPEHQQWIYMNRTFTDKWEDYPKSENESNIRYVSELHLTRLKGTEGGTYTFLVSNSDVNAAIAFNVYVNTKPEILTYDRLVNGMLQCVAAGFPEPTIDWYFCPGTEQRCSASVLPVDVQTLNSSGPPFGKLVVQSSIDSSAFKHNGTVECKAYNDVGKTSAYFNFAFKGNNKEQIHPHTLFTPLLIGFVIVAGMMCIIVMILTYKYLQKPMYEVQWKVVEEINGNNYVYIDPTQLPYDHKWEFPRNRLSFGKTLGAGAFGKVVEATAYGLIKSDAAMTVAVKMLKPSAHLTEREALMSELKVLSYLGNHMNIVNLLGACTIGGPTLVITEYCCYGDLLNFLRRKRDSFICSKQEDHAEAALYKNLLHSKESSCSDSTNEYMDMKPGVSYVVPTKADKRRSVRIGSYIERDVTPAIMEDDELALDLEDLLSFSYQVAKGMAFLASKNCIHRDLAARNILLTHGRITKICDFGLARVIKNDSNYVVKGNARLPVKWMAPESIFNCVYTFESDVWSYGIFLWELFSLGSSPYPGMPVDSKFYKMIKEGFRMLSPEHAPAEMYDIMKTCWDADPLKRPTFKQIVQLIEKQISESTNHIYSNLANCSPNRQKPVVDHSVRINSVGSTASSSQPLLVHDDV
MAPKAPK5, sequence (Q8IW41 whole entry): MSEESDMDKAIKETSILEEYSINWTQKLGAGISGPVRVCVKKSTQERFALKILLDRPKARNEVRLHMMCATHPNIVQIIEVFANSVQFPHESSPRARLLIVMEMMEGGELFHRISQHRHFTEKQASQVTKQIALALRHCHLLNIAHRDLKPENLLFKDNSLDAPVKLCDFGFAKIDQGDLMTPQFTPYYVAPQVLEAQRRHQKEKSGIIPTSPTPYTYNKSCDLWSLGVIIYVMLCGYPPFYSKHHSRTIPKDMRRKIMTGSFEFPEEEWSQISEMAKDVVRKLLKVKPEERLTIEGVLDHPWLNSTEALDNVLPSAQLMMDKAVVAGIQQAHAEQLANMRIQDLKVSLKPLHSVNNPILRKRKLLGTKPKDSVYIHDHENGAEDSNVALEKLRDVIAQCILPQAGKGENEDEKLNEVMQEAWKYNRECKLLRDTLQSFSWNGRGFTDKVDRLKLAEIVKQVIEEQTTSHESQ

Structure (SMILES): CNc1ncc2cc(-c3ccc(-c4cccc(C)n4)cc3Cl)c(=O)n(C[C@H]3OC[C@H](N)CO3)c2n1 [compound 6, G-5555]
- Percent Control (NEK9): 100%
- Percent Control (CDKL3): 100%
- Percent Control (MAPKAPK5): 100%
- Percent Control (CSK): 85%
- Percent Control (HASPIN): 100%
- Percent Control (PDGFRA): 96%
- Percent Control (TLK1): 100%
- Percent Control (ASK2): 70%
- Percent Control (MET): 40%
- Percent Control (LOK): 2.1%
- Percent Control (RET(V804L)): 100%
- Percent Control (PIK3CA(C420R)): 100%
- Percent Control (NEK11): 100%
- Percent Control (TRPM6): 100%
- Percent Control (KIT(D816V)): 100%
- Percent Control (WEE1): 100%
- Percent Control (IRAK1): 49%
- Percent Control (CDK4): 100%
- Percent Control (ACVR2A): 100%
- Percent Control (ERN1): 100%
- Percent Control (GSK3B): 100%
- Percent Control (BRAF(V600E)): 93%
- Percent Control (MLK1): 96%
- Percent Control (ABL1(Q252H); nonphosphorylated): 75%
- Percent Control (ABL1(Q252H); phosphorylated): 100%
- Percent Control (ABL1(H396P); nonphosphorylated): 56%
- Percent Control (ABL1(H396P); phosphorylated): 94%
- Percent Control (EGFR(S752-I759del)): 100%
- Percent Control (CSNK1G3): 100%
- Percent Control (MYO3B): 57%
- Percent Control (LZK): 100%

Source: paper doi:10.1101/2021.04.08.439011v1 (biorxiv, 2021)
